In ChEMBL document CHEMBL4325871 (Eur J Med Chem, 2019):
The source made the active and inactive calls. The calls are words filed in the database; no cut-off is given here.

Legend:
[1] = biological target: T1, Serine/threonine-protein kinase Chk1 (Homo sapiens) (UniProt O14757); assay: Inhibition of hydroxyurea-induced CHK1 phosphorylation at S345 residue in human HCT116 cells at 20 uM treated for 8 hrs starting from 24 hrs post hydroxyurea addition by Western blot analysis; format: cell-based
T1 sequence (whole entry): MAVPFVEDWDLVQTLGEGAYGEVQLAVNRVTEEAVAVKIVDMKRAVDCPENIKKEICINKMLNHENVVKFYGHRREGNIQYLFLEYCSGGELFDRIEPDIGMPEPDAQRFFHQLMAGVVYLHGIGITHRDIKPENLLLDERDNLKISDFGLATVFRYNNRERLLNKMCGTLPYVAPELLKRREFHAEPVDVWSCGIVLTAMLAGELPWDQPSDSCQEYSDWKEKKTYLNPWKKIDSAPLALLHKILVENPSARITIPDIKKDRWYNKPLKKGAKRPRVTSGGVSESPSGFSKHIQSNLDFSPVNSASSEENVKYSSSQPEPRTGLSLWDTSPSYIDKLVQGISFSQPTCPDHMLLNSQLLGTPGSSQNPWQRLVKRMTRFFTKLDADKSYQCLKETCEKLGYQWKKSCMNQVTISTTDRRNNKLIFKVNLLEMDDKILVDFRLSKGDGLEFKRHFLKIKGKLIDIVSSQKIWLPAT

[2] = biological target: T1, Serine/threonine-protein kinase Chk1 (Homo sapiens); assay: Inhibition of hydroxyurea-induced CHK1 phosphorylation at S296 residue in human HCT116 cells at 20 uM treated for 8 hrs starting from 24 hrs post hydroxyurea addition by Western blot analysis; format: cell-based
[3] = biological target: Protein-tyrosine kinase 6 (Homo sapiens) (UniProt Q13882); assay: Inhibition of human BRK assessed as residual activity at 1 uM using poly[Glu:Tyr](4:1) as substrate by [gamma-33P]-ATP assay relative to control
[4] = biological target: Fibroblast growth factor receptor 3 (Homo sapiens) (UniProt P22607); assay: Inhibition of human FGFR3 assessed as residual activity at 1 uM using poly[Glu:Tyr] (4:1) as substrate by [gamma-33P]-ATP assay relative to control
Sequence of Fibroblast growth factor receptor 3 (Homo sapiens) (P22607 23-806 limits assumed): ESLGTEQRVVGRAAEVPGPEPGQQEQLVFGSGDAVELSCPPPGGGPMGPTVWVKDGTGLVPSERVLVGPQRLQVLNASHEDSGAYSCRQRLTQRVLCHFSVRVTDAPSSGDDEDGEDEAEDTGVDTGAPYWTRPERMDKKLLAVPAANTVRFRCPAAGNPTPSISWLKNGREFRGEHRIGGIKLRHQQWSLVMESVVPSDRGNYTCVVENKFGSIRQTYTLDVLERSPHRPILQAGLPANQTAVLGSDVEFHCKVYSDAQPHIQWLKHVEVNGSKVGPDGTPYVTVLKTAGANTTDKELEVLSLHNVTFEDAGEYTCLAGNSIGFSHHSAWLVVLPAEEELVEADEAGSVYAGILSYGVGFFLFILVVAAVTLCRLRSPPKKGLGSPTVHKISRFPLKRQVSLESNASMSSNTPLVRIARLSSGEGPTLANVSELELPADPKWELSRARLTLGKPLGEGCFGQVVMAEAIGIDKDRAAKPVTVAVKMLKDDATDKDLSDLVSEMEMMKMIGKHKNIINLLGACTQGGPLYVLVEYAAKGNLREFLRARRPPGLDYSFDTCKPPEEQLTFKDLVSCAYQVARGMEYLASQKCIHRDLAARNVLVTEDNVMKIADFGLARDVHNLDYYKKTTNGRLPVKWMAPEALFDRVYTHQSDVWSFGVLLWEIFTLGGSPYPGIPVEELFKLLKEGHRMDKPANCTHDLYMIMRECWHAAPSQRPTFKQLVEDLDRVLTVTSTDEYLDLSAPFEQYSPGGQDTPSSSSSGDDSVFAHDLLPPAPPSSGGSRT

[5] = biological target: Tyrosine-protein kinase ITK/TSK (Homo sapiens) (UniProt Q08881); assay: Inhibition of human ITK assessed as residual activity at 1 uM using MBP as substrate by [gamma-33P]-ATP assay relative to control
[6] = biological target: Tyrosine-protein kinase Lck (Homo sapiens) (UniProt P06239); assay: Inhibition of human LCK assessed as residual activity at 1 uM using poly[Glu:Tyr] (4:1) as substrate by [gamma-33P]-ATP assay relative to control
[7] = biological target: MAP kinase-interacting serine/threonine-protein kinase 1 (Homo sapiens) (UniProt Q9BUB5); assay: Inhibition of human MNK1 assessed as residual activity at 1 uM using MBP as substrate by [gamma-33P]-ATP assay relative to control
[8] = biological target: Myosin-IIIa (Homo sapiens) (UniProt Q8NEV4); assay: Inhibition of human MYO3A assessed as residual activity at 1 uM using MBP as substrate by [gamma-33P]-ATP assay relative to control
[9] = biological target: Serine/threonine-protein kinase Nek11 (Homo sapiens) (UniProt Q8NG66); assay: Inhibition of human NEK11 assessed as residual activity at 1 uM using MBP as substrate by [gamma-33P]-ATP assay relative to control
[10] = biological target: Serine/threonine-protein kinase Nek2 (Homo sapiens) (UniProt P51955); assay: Inhibition of human NEK2 assessed as residual activity at 1 uM using MBP as substrate by [gamma-33P]-ATP assay relative to control
[11] = biological target: Serine/threonine-protein kinase Sgk1 (Homo sapiens) (UniProt O00141); assay: Inhibition of human SGK1 assessed as residual activity at 1 uM using KGSGSGRPRTSSFAEG as substrate by [gamma-33P]-ATP assay relative to control
Sequence of Serine/threonine-protein kinase Sgk1 (Homo sapiens) (O00141 whole entry): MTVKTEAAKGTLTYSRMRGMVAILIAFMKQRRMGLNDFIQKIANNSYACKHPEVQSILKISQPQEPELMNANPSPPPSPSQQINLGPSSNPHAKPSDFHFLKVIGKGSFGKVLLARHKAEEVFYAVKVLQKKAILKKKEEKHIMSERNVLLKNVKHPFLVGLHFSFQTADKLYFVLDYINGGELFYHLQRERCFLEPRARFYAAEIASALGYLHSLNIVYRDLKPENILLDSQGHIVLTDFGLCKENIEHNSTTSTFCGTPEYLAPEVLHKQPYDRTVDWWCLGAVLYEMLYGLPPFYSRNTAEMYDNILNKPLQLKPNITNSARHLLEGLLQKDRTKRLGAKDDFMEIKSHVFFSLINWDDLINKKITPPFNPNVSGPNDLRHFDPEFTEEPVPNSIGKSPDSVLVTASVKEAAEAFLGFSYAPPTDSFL

[12] = biological target: SRSF protein kinase 2 (Homo sapiens) (UniProt P78362); assay: Inhibition of human SRPK2 assessed as residual activity at 1 uM using GRSRSRSRSR as substrate by [gamma-33P]-ATP assay relative to control
[13] = biological target: Tyrosine-protein kinase TXK (Homo sapiens) (UniProt P42681); assay: Inhibition of human TXK assessed as residual activity at 1 uM using EAIYAAPFAKKK as substrate by [gamma-33P]-ATP assay relative to control
[14] = biological target: Death-associated protein kinase 1 (Homo sapiens) (UniProt P53355); assay: Inhibition of human DAPK1 assessed as residual activity at 1 uM using KKLNRTLSFAEPG as substrate by [gamma-33P]-ATP assay relative to control
Sequence of Death-associated protein kinase 1 (Homo sapiens) (P53355 whole entry, looked up): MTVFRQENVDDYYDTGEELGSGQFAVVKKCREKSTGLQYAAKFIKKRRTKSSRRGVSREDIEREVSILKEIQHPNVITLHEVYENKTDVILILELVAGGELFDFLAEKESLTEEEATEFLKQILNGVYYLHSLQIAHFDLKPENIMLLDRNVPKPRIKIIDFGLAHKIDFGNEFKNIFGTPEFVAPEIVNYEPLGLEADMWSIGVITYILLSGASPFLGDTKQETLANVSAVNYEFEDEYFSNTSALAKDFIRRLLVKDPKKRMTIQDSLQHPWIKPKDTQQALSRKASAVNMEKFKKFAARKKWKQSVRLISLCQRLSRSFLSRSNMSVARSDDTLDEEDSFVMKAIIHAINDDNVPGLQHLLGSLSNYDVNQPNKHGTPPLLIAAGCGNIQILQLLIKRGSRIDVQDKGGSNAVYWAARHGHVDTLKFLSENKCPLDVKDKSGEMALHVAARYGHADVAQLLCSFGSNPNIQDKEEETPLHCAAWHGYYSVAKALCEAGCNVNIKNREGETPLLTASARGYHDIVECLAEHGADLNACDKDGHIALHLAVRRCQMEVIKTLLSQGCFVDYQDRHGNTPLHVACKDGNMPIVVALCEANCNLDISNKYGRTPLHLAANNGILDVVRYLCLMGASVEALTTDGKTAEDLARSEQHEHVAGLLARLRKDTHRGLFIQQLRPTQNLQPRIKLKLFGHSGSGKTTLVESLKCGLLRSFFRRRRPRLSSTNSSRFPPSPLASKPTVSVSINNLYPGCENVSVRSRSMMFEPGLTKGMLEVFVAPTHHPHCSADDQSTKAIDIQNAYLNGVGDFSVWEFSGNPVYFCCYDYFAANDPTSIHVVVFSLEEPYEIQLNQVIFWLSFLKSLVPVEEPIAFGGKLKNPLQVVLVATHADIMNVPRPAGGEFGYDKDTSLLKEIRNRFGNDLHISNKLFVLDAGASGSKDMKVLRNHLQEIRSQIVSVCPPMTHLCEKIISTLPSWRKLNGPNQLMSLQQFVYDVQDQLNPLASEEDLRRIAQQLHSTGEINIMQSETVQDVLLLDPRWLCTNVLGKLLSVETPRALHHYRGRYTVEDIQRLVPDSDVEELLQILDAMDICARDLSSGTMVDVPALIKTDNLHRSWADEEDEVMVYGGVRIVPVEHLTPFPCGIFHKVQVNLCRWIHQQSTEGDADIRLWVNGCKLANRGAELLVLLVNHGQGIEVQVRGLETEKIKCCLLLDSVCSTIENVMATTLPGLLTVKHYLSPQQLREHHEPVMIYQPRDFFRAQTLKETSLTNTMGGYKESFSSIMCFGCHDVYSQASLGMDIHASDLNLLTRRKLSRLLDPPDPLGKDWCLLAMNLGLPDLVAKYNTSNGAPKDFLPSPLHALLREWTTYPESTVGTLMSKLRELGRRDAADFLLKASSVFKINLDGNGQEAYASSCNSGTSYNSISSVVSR

[15] = biological target: Receptor tyrosine-protein kinase erbB-2 (Homo sapiens) (UniProt P04626); assay: Inhibition of human ERBB2 assessed as residual activity at 1 uM using poly[Glu:Tyr] (4:1) as substrate by [gamma-33P]-ATP assay relative to control
[16] = biological target: Mitogen-activated protein kinase 8 (Homo sapiens) (UniProt P45983); assay: Inhibition of human JNK1 assessed as residual activity at 1 uM using ATF2 as substrate by [gamma-33P]-ATP assay relative to control
[17] = biological target: Serine/threonine-protein kinase MARK2 (Homo sapiens) (UniProt Q7KZI7); assay: Inhibition of human MARK2 assessed as residual activity at 1 uM using KKKVSRSGLYRSPSMPENLNRPR as substrate by [gamma-33P]-ATP assay relative to control
Sequence of Serine/threonine-protein kinase MARK2 (Homo sapiens) (Q7KZI7 whole entry): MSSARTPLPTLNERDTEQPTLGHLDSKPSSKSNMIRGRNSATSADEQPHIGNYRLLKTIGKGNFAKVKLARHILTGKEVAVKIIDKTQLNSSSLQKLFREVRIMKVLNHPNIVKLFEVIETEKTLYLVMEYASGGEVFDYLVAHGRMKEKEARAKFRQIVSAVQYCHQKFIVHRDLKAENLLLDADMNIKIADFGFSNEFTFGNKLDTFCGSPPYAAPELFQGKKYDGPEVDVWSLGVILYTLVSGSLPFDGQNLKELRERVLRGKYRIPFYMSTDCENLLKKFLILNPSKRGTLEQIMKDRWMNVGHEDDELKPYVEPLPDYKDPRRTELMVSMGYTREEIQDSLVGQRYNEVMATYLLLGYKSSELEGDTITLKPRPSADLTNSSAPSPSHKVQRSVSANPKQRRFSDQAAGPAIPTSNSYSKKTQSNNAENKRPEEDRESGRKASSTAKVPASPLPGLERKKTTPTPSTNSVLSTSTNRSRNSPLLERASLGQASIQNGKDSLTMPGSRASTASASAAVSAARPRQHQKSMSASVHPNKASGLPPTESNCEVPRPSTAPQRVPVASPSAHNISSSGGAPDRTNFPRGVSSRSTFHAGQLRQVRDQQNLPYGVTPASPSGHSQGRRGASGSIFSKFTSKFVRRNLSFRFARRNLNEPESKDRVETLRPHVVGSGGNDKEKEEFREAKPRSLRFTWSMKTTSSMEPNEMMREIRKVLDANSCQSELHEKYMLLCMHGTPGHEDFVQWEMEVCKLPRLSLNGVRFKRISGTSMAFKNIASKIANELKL

[18] = biological target: Dual specificity mitogen-activated protein kinase kinase 2 (Homo sapiens) (UniProt P36507); assay: Inhibition of human MEK2 assessed as residual activity at 1 uM using ERK2 as substrate by [gamma-33P]-ATP assay relative to control
[19] = biological target: Misshapen-like kinase 1 (Homo sapiens) (UniProt Q8N4C8); assay: Inhibition of human MINK1 assessed as residual activity at 1 uM using MBP as substrate by [gamma-33P]-ATP assay relative to control
[20] = biological target: Serine/threonine-protein kinase Nek7 (Homo sapiens, UniProt Q8TDX7); assay: Inhibition of human NEK7 assessed as residual activity at 1 uM using casein as substrate by [gamma-33P]-ATP assay relative to control
[21] = biological target: Serine/threonine-protein kinase D3 (Homo sapiens) (UniProt O94806); assay: Inhibition of human PKCnu assessed as residual activity at 1 uM using KKLNRTLSVA as substrate by [gamma-33P]-ATP assay relative to control
Sequence of Serine/threonine-protein kinase D3 (Homo sapiens) (O94806 whole entry): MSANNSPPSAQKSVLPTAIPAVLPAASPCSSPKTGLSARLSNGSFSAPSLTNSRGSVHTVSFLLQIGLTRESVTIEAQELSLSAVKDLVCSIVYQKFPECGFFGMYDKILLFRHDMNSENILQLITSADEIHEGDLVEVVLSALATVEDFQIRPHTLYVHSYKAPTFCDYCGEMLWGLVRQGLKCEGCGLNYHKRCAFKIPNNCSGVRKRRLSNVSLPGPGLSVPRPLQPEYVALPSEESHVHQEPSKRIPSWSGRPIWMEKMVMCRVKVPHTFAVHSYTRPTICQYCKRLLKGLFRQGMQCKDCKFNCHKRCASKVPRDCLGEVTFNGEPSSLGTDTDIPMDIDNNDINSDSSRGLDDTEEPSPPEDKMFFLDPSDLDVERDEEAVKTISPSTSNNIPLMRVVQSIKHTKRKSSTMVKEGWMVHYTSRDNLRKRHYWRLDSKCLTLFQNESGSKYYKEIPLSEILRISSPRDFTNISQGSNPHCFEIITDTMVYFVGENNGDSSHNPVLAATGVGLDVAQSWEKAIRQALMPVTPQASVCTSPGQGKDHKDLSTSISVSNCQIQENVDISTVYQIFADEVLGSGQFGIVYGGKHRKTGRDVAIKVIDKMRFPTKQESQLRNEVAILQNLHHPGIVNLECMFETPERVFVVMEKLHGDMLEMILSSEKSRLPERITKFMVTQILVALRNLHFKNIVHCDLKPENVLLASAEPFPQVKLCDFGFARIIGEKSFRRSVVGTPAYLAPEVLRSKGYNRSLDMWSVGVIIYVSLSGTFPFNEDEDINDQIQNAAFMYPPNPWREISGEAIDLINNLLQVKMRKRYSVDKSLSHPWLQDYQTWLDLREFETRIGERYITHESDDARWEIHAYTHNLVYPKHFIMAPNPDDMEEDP

[22] = biological target: Protein kinase C theta type (Homo sapiens) (UniProt Q04759); assay: Inhibition of human PKCtheta assessed as residual activity at 1 uM using Histone H1 as substrate by [gamma-33P]-ATP assay relative to control
[23] = biological target: Proto-oncogene tyrosine-protein kinase receptor Ret (Homo sapiens) (UniProt P07949); assay: Inhibition of human RET assessed as residual activity at 1 uM using KKKVSRSGLYRSPSMPENLNRPR as substrate by [gamma-33P]-ATP assay relative to control
[24] = biological target: Serine/threonine-protein kinase tousled-like 1 (Homo sapiens) (UniProt Q9UKI8); assay: Inhibition of human TLK1 assessed as residual activity at 1 uM using Histone H3 as substrate by [gamma-33P]-ATP assay relative to control
Sequence of Serine/threonine-protein kinase tousled-like 1 (Homo sapiens) (Q9UKI8 whole entry): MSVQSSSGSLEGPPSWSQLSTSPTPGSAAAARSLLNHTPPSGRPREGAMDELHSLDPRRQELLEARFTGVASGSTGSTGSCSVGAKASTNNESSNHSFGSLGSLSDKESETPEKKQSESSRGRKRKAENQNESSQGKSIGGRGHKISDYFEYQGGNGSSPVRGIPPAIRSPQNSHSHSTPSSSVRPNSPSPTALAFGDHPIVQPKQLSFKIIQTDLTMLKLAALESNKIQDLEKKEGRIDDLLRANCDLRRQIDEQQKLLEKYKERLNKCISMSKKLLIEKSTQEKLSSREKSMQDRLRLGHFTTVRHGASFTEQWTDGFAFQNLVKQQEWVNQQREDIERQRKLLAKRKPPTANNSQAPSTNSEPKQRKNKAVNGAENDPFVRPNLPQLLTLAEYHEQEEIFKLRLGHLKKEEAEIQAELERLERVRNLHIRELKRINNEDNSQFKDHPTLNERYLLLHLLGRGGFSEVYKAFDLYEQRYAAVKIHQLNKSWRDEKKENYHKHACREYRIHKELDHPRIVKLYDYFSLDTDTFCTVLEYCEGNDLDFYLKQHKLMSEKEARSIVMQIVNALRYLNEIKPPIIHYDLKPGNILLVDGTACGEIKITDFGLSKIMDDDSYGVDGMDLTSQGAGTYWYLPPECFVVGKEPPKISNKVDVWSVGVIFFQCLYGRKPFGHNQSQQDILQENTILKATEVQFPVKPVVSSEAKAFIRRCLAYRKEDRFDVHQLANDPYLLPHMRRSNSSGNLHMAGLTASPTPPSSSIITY

With `C(=C\c1ccccc1)/C[N+]12CN3CN(CN(C3)C1)C2` the inhibition [1] was “Active”, the inhibition [2] was “Active” and the Activity [3] was 95.2 to 95.6%. The Activity [4] was 93.8 to 94.8%, the Activity [5] was 91.3 to 92.2% and the Activity [6] was 94.2 to 95.5%. For the same compound, the Activity [7] was 96.3 to 99.7%, the Activity [8] was 113 to 122% and the Activity [9] was 95 to 96.2%. For the same compound, the Activity [10] was 106%, the Activity [11] was 93.4 to 94.1% and the Activity [12] was 107 to 111%. The Activity [13] was 93.5 to 93.8%.
For `ClC/C=C/C[N+]12CN3CN(CN(C3)C1)C2`, the Activity [14] was 119 to 135%, the Activity [15] was 96.7 to 96.8% and the Activity [16] was 96 to 96.5%. The Activity [17] was 94.5%, the Activity [18] was 85.2 to 94.1% and the Activity [19] was 91.9 to 94.8%. For the same compound, the Activity [20] was 94.2 to 95.6%, the Activity [21] was 93.2 to 96.7% and the Activity [22] was 111 to 115%. It also gave an Activity [23] of 96.4 to 96.7% and an Activity [24] of 93.1 to 93.4%.
